Active and inactive are the calls of the source. The rule behind the calls is not given here.
What was measured:
Assay type in all cases: functional, organism-based
Conditions in all cases: Cercopithecidae
Monkey [1] = test: The compound was evaluated for the rating of psychotropic effects in rhesus monkey at a dose of 1 mg/Kg; value is (-) No change
Monkey [2] = test: The compound was evaluated for the rating of psychotropic effects in rhesus monkey at a dose of 2 mg/Kg; value is (+) drowsiness, decreased motor activity, occasional partial ptosis, occasional head drop
Monkey [3] = test: The compound was evaluated for the rating of psychotropic effects in rhesus monkey at a dose of 5 mg/Kg; value is (-) No change
Monkey [4] = test: The compound was evaluated for the rating of psychotropic effects in rhesus monkey at a dose of 2 mg/Kg; value is (-) No change
Monkey [5] = test: The compound was evaluated for the rating of psychotropic effects in rhesus monkey at a dose of 5 mg/Kg; value is (+) drowsiness, decreased motor activity, occasional partial ptosis, occasional head drop
Monkey [6] = test: The compound was evaluated for the rating of psychotropic effects in rhesus monkey at a dose of 1 mg/Kg; value is (++) stupor, ataxia, suppression of motor activity, full ptosis
Monkey [7] = test: The compound was evaluated for the rating of psychotropic effects in rhesus monkey at a dose of 0.5 mg/Kg; value is (+) drowsiness, decreased motor activity, occasional partial ptosis, occasional head drop
Monkey [8] = test: The compound was evaluated for the rating of psychotropic effects in rhesus monkey at a dose of 2 mg/Kg; value is (++) stupor, ataxia, suppression of motor activity, full ptosis
Monkey [9] = test: The compound was evaluated for the rating of psychotropic effects in rhesus monkey at a dose of 0.1 mg/Kg; value is (++) stupor, ataxia, suppression of motor activity, full ptosis
Monkey [10] = test: The compound was evaluated for the rating of psychotropic effects in rhesus monkey at a dose of 0.05 mg/Kg; value is (-) No change
Monkey [11] = test: The compound was evaluated for the rating of psychotropic effects in rhesus monkey at a dose of 0.25 mg/Kg; value is (++) stupor, ataxia, suppression of motor activity, full ptosis
Monkey [12] = test: The compound was evaluated for the rating of psychotropic effects in rhesus monkey at a dose of 0.5 mg/Kg; value is (++) stupor, ataxia, suppression of motor activity, full ptosis
Monkey [13] = test: The compound was evaluated for the rating of psychotropic effects in rhesus monkey at a dose of 0.1 mg/Kg; value is (+/-) tranquility
Monkey [14] = test: The compound was evaluated for the rating of psychotropic effects in rhesus monkey at a dose of 0.25 mg/Kg; value is (-) No change

With `CCCCCc1cc(O)c2c(c1)OC(C)(C)[C@@H]1CC[C@H](C)CC21` (stereo not given in full) the Activity (Monkey [1]) was “inactive” and the Activity (Monkey [2]) was “drowsiness, decreased motor activity, occasional partial ptosis, occasional head drop”.

`CCCCCc1cc(O)c2c(c1)OC(C)(C)[C@@H]1CC(O)[C@H](C)CC21` (stereo not given in full) was tested, and the Activity (Monkey [1]) was “inactive” and the Activity (Monkey [3]) was “inactive”.

In the case of `CCCCCc1cc(O)c2c(c1)OC(C)(C)[C@@H]1CCC(C)[C@H](O)C21` (stereo not given in full), the Activity (Monkey [1]) is reported as “inactive”, the Activity (Monkey [4]) is reported as “inactive” and the Activity (Monkey [5]) is reported as “drowsiness, decreased motor activity, occasional partial ptosis, occasional head drop”.

For `CCCCCc1cc(OC(C)=O)c2c(c1)OC(C)(C)[C@@H]1CC[C@H](COC(C)=O)CC21` (stereo not given in full), the Activity (Monkey [1]) was “inactive” and the Activity (Monkey [3]) was “inactive”.

`CCCCCc1cc(O)c2c(c1)OC(C)(C)[C@@H]1CC[C@H](C)[C@H](O)C21` (stereo not given in full) was tested, and the Activity (Monkey [6]) was “drowsiness, decreased motor activity, occasional partial ptosis, occasional head drop”, the Activity (Monkey [7]) was “drowsiness, decreased motor activity, occasional partial ptosis, occasional head drop” and the Activity (Monkey [8]) was “drowsiness, decreased motor activity, occasional partial ptosis, occasional head drop”.

`CCCCCc1cc(O)c2c(c1)OC(C)(C)[C@@H]1CCC(C)=C[C@@H]21` was tested, and the Activity (Monkey [9]) was “Active”, the Activity (Monkey [10]) was “inactive” and the Activity (Monkey [11]) was “Active”.

In the case of `CCCCCc1cc(O)c2c(c1)OC(C)(C)[C@@H]1CC=C(C)CC21` (stereo not given in full), the Activity (Monkey [12]) is reported as “Active”, the Activity (Monkey [13]) is reported as “inactive” and the Activity (Monkey [11]) is reported as “Active”.

For `CCCCCc1cc(O)c2c(c1)OC(C)(C)[C@@H]1C[C@H](O)[C@H](C)CC21` (stereo not given in full), the Activity (Monkey [6]) was “drowsiness, decreased motor activity, occasional partialptosis,occasional head drop”, the Activity (Monkey [14]) was “inactive” and the Activity (Monkey [7]) was “drowsiness, decreased motor activity, occasional partialptosis,occasional head drop”.

In the case of `CCCCCc1cc(OC(C)=O)c2c(c1)OC(C)(C)[C@@H]1CCC(COC(C)=O)CC21` (stereo not given in full), the Activity (Monkey [6]) is reported as “drowsiness, decreased motor activity, occasional partial ptosis, occasional head drop” and the Activity (Monkey [7]) is reported as “drowsiness, decreased motor activity, occasional partial ptosis, occasional head drop”.

With `CCCCCc1cc(O)c2c(c1)OC(C)(C)[C@@H]1CC[C@@H](C)CC21` (stereo not given in full) the Activity (Monkey [12]) was “stupor,ataxia, suppression of motor activity, full ptosis” and the Activity (Monkey [13]) was “+/-”.

With `CCCCCc1cc(O)c2c(c1)OC(C)(C)[C@@H]1C[C@H](O)C(C)CC21` (stereo not given in full) the Activity (Monkey [1]) was “inactive”, the Activity (Monkey [3]) was “inactive” and the Activity (Monkey [4]) was “inactive”.

`CCCCCc1cc(O)c2c(c1)OC(C)(C)[C@@H]1CC[C@H](C)C(O)C21` (stereo not given in full) was tested, and the Activity (Monkey [1]) was “inactive” and the Activity (Monkey [3]) was “inactive”.

Source: ChEMBL document CHEMBL1121535, “Stereochemical requirements for cannabinoid activity” (J Med Chem, 1980)
